The values below come from PubChem BioAssay (NCI).

SMILES strings stand for the structures.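 All cell lines were grown in 96-well plates and treated with compound for 48 hours. At the GI50, growth is halved. TGI denotes the concentration required for complete inhibition of growth.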 Where only a bound is given, the exact number is not on record here.

Among the test systems are UO-31 renal; K-562 leukemia; OVCAR-8 ovarian; SF-295 CNS; OVCAR-4 ovarian; SW-620 colon; HOP-92 NSCLC; PC-3 prostate; BT-549 breast; NCI/ADR-RES ovarian.
What all share (assay): NCI anticancer screen, dose series, 48 h

On to `O=C(OCc1ccccc1)n1cccc1`, for which the TGI in the experiment with UO-31 renal, with K-562 leukemia, in the experiment on OVCAR-8 ovarian, in the experiment on SF-295 CNS, in the experiment with OVCAR-4 ovarian and in the experiment with SW-620 colon was > 100 µM each time. Further, the TGI in the experiment on HOP-92 NSCLC was > 100 µM.
For the molecule `CC(=N/NC(N)=S)/C(C)=N/NC(N)=S`, the TGI in the experiment with UO-31 renal, in the experiment on K-562 leukemia, in the experiment on OVCAR-8 ovarian, in the experiment on PC-3 prostate, in the experiment with SW-620 colon and in the experiment with BT-549 breast was > 100 µM each time. The TGI with NCI/ADR-RES ovarian was > 100 µM.
On to `COc1cc(NCCC2CCCCN2)c2ncccc2c1OC` (stereo not given), for which the GI50 with UO-31 renal is 14.9 µM; with OVCAR-8 ovarian, 6.49 µM; with SF-295 CNS, 10.4 µM; in the experiment on OVCAR-4 ovarian, 1.5 µM; in the experiment with PC-3 prostate, 18.1 µM; with SW-620 colon, 5.5 µM. Besides, the GI50 was 19.9 µM in the experiment with BT-549 breast and 22.8 µM with NCI/ADR-RES ovarian. Further, the TGI was 36.7 µM with UO-31 renal; 59.2 µM in the experiment on OVCAR-8 ovarian; 31 µM with SF-295 CNS; 2.86 µM in the experiment with OVCAR-4 ovarian; 72 µM with PC-3 prostate; 21.2 µM with SW-620 colon. Also, the TGI in the experiment on BT-549 breast worked out at 34.8 µM; with NCI/ADR-RES ovarian it was 70.5 µM.
In the case of `CCN(CC)CCCC(C)Nc1ccnc(/C=C/c2ccc(Cl)cc2)c1` (stereo not given), the TGI in the experiment with UO-31 renal is 3.17 µM; in the experiment on OVCAR-8 ovarian, 7.57 µM; in the experiment with SF-295 CNS, 6.3 µM; in the experiment on PC-3 prostate, 10.7 µM; with SW-620 colon it was 3.91 µM; in the experiment with BT-549 breast it was 8.39 µM. Moreover, the TGI stood at 15.3 µM in the experiment with NCI/ADR-RES ovarian and 3.12 µM in the experiment with HOP-92 NSCLC.
Regarding `O=C1CCc2ccc(O)c(c2)Oc2ccc(cc2)[C@@H]2O[C@@H]2CO1`, the TGI in the experiment on UO-31 renal, in the experiment on K-562 leukemia, with OVCAR-8 ovarian, in the experiment with SF-295 CNS, in the experiment on OVCAR-4 ovarian and in the experiment on SW-620 colon was > 100 µM throughout. Moreover, in the experiment on HOP-92 NSCLC, the TGI came out at 88.2 µM.
With `CC[P+]1(c2ccccc2)CCCCC1`, the TGI in the experiment with UO-31 renal, in the experiment with K-562 leukemia, with OVCAR-8 ovarian, in the experiment on SF-295 CNS, with OVCAR-4 ovarian and in the experiment with SW-620 colon was > 100 µM in each case. Also, the TGI in the experiment on HOP-92 NSCLC is > 100 µM.
For the molecule `CN(C)CCNC(=O)c1cccc2c1nc(-c1ccncc1)c1ccccc12`, the TGI with UO-31 renal was 6.08 µM; in the experiment with K-562 leukemia, > 100 µM; with OVCAR-8 ovarian it was 41.9 µM; in the experiment with SF-295 CNS, 15.9 µM; with OVCAR-4 ovarian, 15.6 µM; in the experiment on SW-620 colon it was 19.1 µM. In addition, the TGI in the experiment with HOP-92 NSCLC came out at 9.77 µM.
As for `c1ccc2c(c1)[nH]c1c3ccccc3sc21`, the TGI with UO-31 renal, in the experiment with K-562 leukemia, in the experiment on OVCAR-8 ovarian, with SF-295 CNS, in the experiment with OVCAR-4 ovarian and in the experiment with PC-3 prostate was > 100 µM each time. Further, the TGI in the experiment with SW-620 colon, with NCI/ADR-RES ovarian and with HOP-92 NSCLC was > 100 µM in each case.
For `CNC(=O)NCCN1N=C(C)/C(=C\c2ccccc2)CC1=O`, the TGI with UO-31 renal, in the experiment with K-562 leukemia, in the experiment on OVCAR-8 ovarian, with SF-295 CNS, with OVCAR-4 ovarian and in the experiment with SW-620 colon was > 100 µM throughout. Further, in the experiment on HOP-92 NSCLC, the TGI is > 100 µM.
With `CCOC(=O)c1cc(C(=O)c2cc(OC)c(OC)c(OC)c2)n2ccc(-c3cc[n+](CC(=O)c4cc(OC)c(OC)c(OC)c4)cc3)cc12`, the GI50 is 7.97 µM in the experiment on UO-31 renal; 2.33 µM with OVCAR-8 ovarian; 1.74 µM in the experiment on OVCAR-4 ovarian; 2.61 µM with PC-3 prostate; 1.76 µM with SW-620 colon; 1.98 µM in the experiment on BT-549 breast. Also, in the experiment with NCI/ADR-RES ovarian, the GI50 is > 100 µM. In addition, the TGI with UO-31 renal turned out to be 26.5 µM; in the experiment on OVCAR-8 ovarian it was 5.47 µM; in the experiment with OVCAR-4 ovarian, 3.67 µM; in the experiment with PC-3 prostate, 8.12 µM; in the experiment on SW-620 colon, 3.47 µM; in the experiment on BT-549 breast it was 4.49 µM. For the same molecule, the TGI with NCI/ADR-RES ovarian was > 100 µM.
On to `CCSCCCC(=O)O`, for which the TGI in the experiment with UO-31 renal, in the experiment on K-562 leukemia, in the experiment on OVCAR-8 ovarian, in the experiment with SF-295 CNS, in the experiment on OVCAR-4 ovarian and with PC-3 prostate was > 100 µM in each case. Besides, the TGI with SW-620 colon, in the experiment with BT-549 breast and in the experiment on NCI/ADR-RES ovarian was > 100 µM each time.
`N#CCC(=O)Nc1ccccc1O`: the TGI in the experiment on UO-31 renal, with K-562 leukemia, with OVCAR-8 ovarian, with SF-295 CNS, with OVCAR-4 ovarian and in the experiment on SW-620 colon was > 100 µM in each case. In addition, in the experiment on HOP-92 NSCLC, the TGI was > 100 µM.
With `Oc1ccc(/C=N/NC(=S)Nc2cccnc2)nc1`, the TGI with UO-31 renal was > 26.9 µM; with K-562 leukemia it was > 23.1 µM; in the experiment on OVCAR-8 ovarian, 12.6 µM; with SF-295 CNS it was > 75.6 µM; in the experiment with OVCAR-4 ovarian it was > 100 µM; in the experiment on PC-3 prostate it was > 100 µM. Also, the TGI with SW-620 colon is > 100 µM; with NCI/ADR-RES ovarian, 9.59 µM; in the experiment on HOP-92 NSCLC, 59.6 µM.
With `C=CCC1C(=O)CC2(C)C(CC=C)C(=O)CC12C` (stereo not given), the TGI with UO-31 renal, in the experiment with K-562 leukemia, in the experiment on OVCAR-8 ovarian, in the experiment on SF-295 CNS, in the experiment on OVCAR-4 ovarian and with SW-620 colon was > 100 µM in each case. Moreover, the TGI in the experiment on HOP-92 NSCLC was > 100 µM.
In the case of `O=C1c2ccccc2C(=O)c2sc(Nc3ccc([N+](=O)[O-])cc3)nc21`, the TGI with UO-31 renal worked out at 8.94 µM; in the experiment with K-562 leukemia it was 5.98 µM; with OVCAR-8 ovarian, 13.7 µM; in the experiment on SF-295 CNS, 24.7 µM; in the experiment on OVCAR-4 ovarian it was 11 µM; in the experiment on PC-3 prostate, 19.9 µM. Further, the values for the TGI with SW-620 colon, with BT-549 breast and in the experiment with HOP-92 NSCLC were 8.48 µM, 27.4 µM and 28.6 µM, respectively.
